By solubility is commonly meant how much of the substance goes into solution per volume.

This is an account of results in PMC6060383, “Synthesis and pharmacological evaluation of novel isoquinoline N-sulphonylhydrazones designed as ROCK inhibitors” (Journal of Enzyme Inhibition and Medicinal Chemistry, 2018).

The structures appear in SMILES notation. In brackets after ≈: the same amount, converted by molar mass.

A short description of data set [1]: Water solubility assay (UV spectrophotometric method). The class given is physicochemical. As to conditions: aqueous buffer, thermodynamic from solid, water (buffer pH 7.4), stirring 4 h at 37 °C. How it is done: The solubility assay was performed considering the absorptivity of compounds under ultraviolet spectroscopy as described by Schneider et al.[20] Assay wavelength was determined through λmax characteristic of each compound. Saturated aqueous solutions were prepared (0.8–1.0 mg/mL) and kept under stirring for 4 h at 37 °C. The supernatant was filtered in […] filters and transferred to a quartz cuvette (10 mm) for spectra acquisition. Solubility was determined by linear regression used as Excel graph plots, solutions were prepared by dilutions of the original solution in methanol. Data were collected in triplicate and the mean values were used to create the graph plots. The correlation coefficient (R^2) values were between 0.9982 and 1.
The N-sulphonylhydrazone derivatives 5a–h were evaluated for their ability to inhibit both ROCK1 and ROCK2 isoforms by measuring the phosphorylation of the Ulight-RRRSLLE substrate using human recombinant enzymes expressed in Sf9[23] and Sf21^24 cells, respectively. Prior to this assay, we evaluated the solubility of these compounds in water (buffer pH 7.4) to ensure that the inhibition percentages were not influenced by the precipitation of the compounds under test conditions. The enzymatic assay was initially performed at a screening concentration of 3 μM, which is capable of guaranteeing the solubility of most of the compounds, and the obtained results are shown in Table 2.

The test system of a further data set is MDA-MB 231 cells. As to the kind of experiment: Plasma membrane integrity assay (LDH). Type of data set: cell-based, human. As to conditions: 0.1 to 30 µM, 24 and 48 h. How it is done:
The human mammary gland/breast epithelial cell line MDA-MB 231 was obtained from the American Type Culture Collection (ATCC® HTB-26™) and this use was approved by the Ethics Committee for Animal Care and Use in Scientific Research from the Federal University of Rio de Janeiro. Cells were routinely grown in RPMI medium containing 10% foetal bovine serum (FBS), 1% L-glutamine and 1% penicillin-streptomycin, in a humidified 5% CO2 atmosphere at 37 °C. Cells were cultured up to 70–100% confluence and then some cultures were treated with the compounds at different concentrations for 24 or 48 h. All cell culture reagents were purchased from Invitrogen (São Paulo, Brazil).
To measure plasma membrane integrity, we assayed serum lactate dehydrogenase (LDH) levels and calculated percentages of LDH release to the medium. LDH activity was measured spectrophotometrically using a commercial kit (Doles, Goiás, Brazil). […] Then, 10 μl of NAD were added and absorbance intensities were measured in a microplate reader (FlexStation® 3 Reader, Molecular Devices) at 490 nm. The percentage of LDH release was calculated by ([LDH] sample ×100)/total [LDH]. […]
We also analysed the plasma membrane integrity by measuring the serum lactate dehydrogenase (LDH) levels in the culture medium to confirm the cell viability data. […]

In data set [1], `O=S(=O)(N/N=C/c1ccccc1)c1cccc2cnccc12` [Compound 5b, (E)-N′-benzylideneisoquinoline-5-sulphonohydrazide] showed a solubility at 4 h of 54 µM (≈ 16.8 µg/mL). In addition, the “LDH levels in culture medium / cytotoxicity in LDH assay (result in words)” value in the data set on MDA-MB 231 cells is reported as “not altered”.
